Data taken from US6147095A (priority 1999, dated 2000).
Entries after “also recorded” stand apart in the source; their conditions may differ. Read-outs that look alike come from different tables or passages of the source.

Assays:
[1] = human, in vivo
Description: The drugs were then coadministered for 10 days, after which the pharmacokinetics of each were re-evaluated and compared with baseline data. The study was conducted in 14 healthy volunteers (13 males and 1 female) with a mean age of 29.9 years (range, 21.3-43.9 years), height of 174.4 cm (range, 162.6-185.4 cm), and weight of 76.5 kg (range, 65.1-88.2 kg). Twelve subjects were Caucasian and two were of African descent. Ten subjects completed all aspects of the study. Pharmacokinetic analyses were based on the results obtained in these subjects. […] Detection was by UV absorbance at 260 nm.

[2] = human, in vivo; remark: listed apart in the source
Description: A pharmacokinetic profile was obtained under steady-state conditions following 7 days of dosing. […] Forty-four subjects were Caucasian, 2 were Black, and 2 were Asian.
An aliquot (0.150 mL) was initially injected onto a short Zorbax® RX-C8 column which was connected via a column switching valve to the analytical column, Zorbax® RX-C8 column. The mobile phase was composed of acetonitrile:methanol:0.1% TFA in water, (40:35:25, v/v). Detection was by UV absorbance at 260 nm.
(§3) Pharmacokinetic parameters such as AUC, Cmax, tmax, oral clearance, and terminal half-life, were determined using standard noncompartmental techniques.

clinical [3] = conditions: human, in vivo, po, CLPO (oral clearance)
Description: (§1) Baseline pharmacokinetic data for each drug were obtained under pharmacokinetic steady-state conditions following 7 days of dosing. Each drug was then co-administered for 10 days, at which time the pharmacokinetics of each was re-evaluated and compared with baseline data. […] All subjects were Caucasian. […] Pharmacokinetic analyses were based on results obtained in these subjects.
Detection was by UV absorbance at 260 nm.
(§2) Treatment effects on pharmacokinetic parameters were assessed using Wilcoxon's Signed Rank Test.

CYP3A [4] = test: Enzyme induction; conditions: previous studies / in vitro and in vivo data
HIV = conditions: reported for tipranavir; cited from earlier work
[5] = Table 1; cited from earlier work
[6] = Tipranavir drug-drug interaction potential (Table 1); conditions: with tipranavir
[7] = cited from earlier work
CYP3A [8] = conditions: cited from earlier work
CYP3A [9] = conditions: delavirdine 200, 300, and 400 mg TID, HIV-1 infected patients, serial erythromycin breath tests; cited from earlier work
[10] = test system: cytochrome P450 3A (CYP3A); conditions: known property; cited from earlier work
[11] = human, in vivo; remark: listed apart in the source
Description: as §1
Plasma samples were assayed for delavirdine concentrations using a validated, sensitive and specific isocratic high performance liquid chromatographic (HPLC) method: one for the upper concentration range, and one for the lower concentration range. […] The supernatant was mixed with buffer and directly injected. Chromatographic separation was achieved using a Brownlee cyano guard column and an analytical column, DuPont Zorbax® SB CN.
as §2

CYP3A [12] = conditions: Table 1; cited from earlier work
[13] = Study 2: pharmacokinetics of ritonavir co-administered with tipranavir in healthy volunteers; assay type: in vivo, human
Description: Both groups received their assigned dose of tipranavir continuously throughout the study period. […] The pharmacokinetics of tipranavir when coadministered with ritonavir were evaluated and compared with baseline data, while the ritonavir data were compared to historical data. The study was conducted in 19 healthy volunteers (16 males and 3 females) with a mean age of 30 years (range, 19-52 years), height of 177.1 cm (range, 162.6-190.5 cm), and weight of 76.7 kg (range, 57.3-95.0 kg). Eighteen subjects were Caucasian […]. […] Pharmacokinetic analyses were based on those subjects completing the baseline evaluation and at least one period of concomitant drug administration. […] Ritonavir and the internal standard (IS) were extracted from human plasma by liquid-liquid extraction with an ethyl acetate mixture.

clinical [14] = assay type: in vivo, human
Source text: The drugs were then coadministered for 10 days, after which the pharmacokinetics of each were re-evaluated and compared with baseline data. […] Twelve subjects were Caucasian and two were of African descent. Ten subjects completed all aspects of the study. Pharmacokinetic analyses were based on the results obtained in these subjects. […] Ritonavir and the internal standard (IS) were extracted from human plasma by liquid-liquid extraction with an ethyl acetate mixture.

[15] = human, in vivo; remark: listed apart in the source
Description: (§4) A pharmacokinetic profile was obtained under steady-state conditions following 7 days of dosing.
(§5) After elution from the SPE, a C-18AR analytical column was used to perform the chromatographic separation: the mobile phase was a gradient of methanol and 25 mM ammonium acetate. […] Retention times were approximately 1.5 minutes.
as §3

[16] = Example 4: pharmacokinetics of ritonavir oral solution with tipranavir SEDDS in healthy volunteers
Description: as §4, §5, §3

[17] = 200 mg BID with tipranavir 1250 mg BID vs ritonavir 500 mg BID alone

CCC[C@@]1(CCc2ccccc2)CC(O)=C([C@H](CC)c2cccc(NS(=O)(=O)c3ccc(C(F)(F)F)cn3)c2)C(=O)O1 (relative stereo) [Tipranavir, [R-(R*,R*)]-N-[3-[1-[5,6-Dihydro-4-hydroxy-2-oxo-6-(2-phenylethyl)-6-propyl-2H-pyran-3-yl]propyl]phenyl]-5-(trifluoromethyl)-2-pyridinesulfonamide]
effect on elimination half-life (t1/2) [1]: not accompanied by a prolongation of the elimination half-life
CLPO (oral clearance) [2]: 12.7 (6.1-23.7) L/h
effect on apparent terminal half-life ([2]; po): not significantly affected by ritonavir
CL/F (clinical [3]): 468 mL/min
enzyme induction by tipranavir (CYP3A [4]): induces its own metabolism over a wide dosage range; also recorded: enzyme inducer
IC90 (HIV): 1000 nM

Nc1ccn([C@@H]2CS[C@H](CO)O2)c(=O)n1 [3TC]
Principal Route(s) of Elimination [5]: Excreted unchanged in urine

Cc1cn([C@H]2C[C@H](N=[N+]=[N-])[C@@H](CO)O2)c(=O)[nH]c1=O [AZT]
Potential for Clinically Significant Interaction [6]: Low
Principal Route(s) of Elimination [5]: Conjugation/renal excretion

CC(C)CN(C[C@@H](O)[C@H](Cc1ccccc1)NC(=O)O[C@H]1CCOC1)S(=O)(=O)c1ccc(N)cc1 [Amprenavir]
Potential for Clinically Significant Interaction [6]: High (and unfavorable)
Principal Route(s) of Elimination [5]: CYP3A
decrease of AUC by rifampin ([7]; Table 1, protease inhibitors): ~ 80%

CC(C)Nc1cccnc1N1CCN(C(=O)c2cc3cc(NS(C)(=O)=O)ccc3[nH]2)CC1 [Delavirdine]
inhibition of CYP3A in vitro (CYP3A [8]): non-competitively inhibit CYP3A
inhibition of CYP3A in vivo (CYP3A [9]): rapid and significant inhibition of CYP3A
inhibition of CYP3A [10]: inhibits cytochrome P450 monooxygenase (CYP3A)
delavirdine clearance with rifabutin or rifampin ([7]; coadministration of either rifabutin or rifampin): marked increase in delavirdine clearance
CLPO (oral clearance) [11]: 5.18 (1.5-7.8) L/h

O=C1Nc2ccc(Cl)cc2[C@@](C#CC2CC2)(C(F)(F)F)O1 [Efavirenz]
CYP3A induction (CYP3A [12]): possible CYP3A inducer

CC(C)(C)NC(=O)[C@@H]1CN(Cc2cccnc2)CCN1C[C@@H](O)C[C@@H](Cc1ccccc1)C(=O)N[C@H]1c2ccccc2C[C@H]1O [Indinavir]
decrease of AUC by rifampin ([7]; Table 1, protease inhibitors): ~ 80%

Cc1c(O)cccc1C(=O)N[C@@H](CSc1ccccc1)[C@H](O)CN1C[C@H]2CCCC[C@H]2C[C@H]1C(=O)NC(C)(C)C [Nelfinavir]
decrease of AUC by rifampin ([7]; human, in vivo): ~ 80%

Cc1ccnc2c1NC(=O)c1cccnc1N2C1CC1 [Nevirapine]
decrease of nevirapine concentrations by rifampin ([7]; in vivo): ~ 40%

CC(C)c1nc(CN(C)C(=O)N[C@H](C(=O)N[C@@H](Cc2ccccc2)C[C@H](O)[C@H](Cc2ccccc2)NC(=O)OCc2cncs2)C(C)C)cs1 [Ritonavir, (2S,3S,5S)-5(N-(N-((N-Methyl-N-((2-isopropyl-4-thiazoly)methyl)amino)carbonyl)-L-valinyl)amino)-2-(N-((5-thiazoly)methoxycarbonyl)amino)-1,6-diphenyl-3-hydroxhexane]
effect of tipranavir on blood levels of ritonavir ([13]; Examples 1 and 2): lower blood levels of ritonavir
ritonavir concentrations ([13]; co-administration of lowest tipranavir dose tested (600 mg BID)): significantly and substantially declined
effect on elimination half-life ([13]; human, in vivo): shortening of the elimination hall-life
decrease in steady-state plasma ritonavir concentrations ([13]; ritonavir 500 mg BID with tipranavir 600 or 900 mg BID vs ritonavir alone): ~4 -fold
effect on apparent half-life of elimination (clinical [14]; human, in vivo): shorter apparent half-life of elimination
CL/F (clinical [14]; human, in vivo, po): 85 mL/min
CLPO (oral clearance) (clinical [14]; human, in vivo, po): 5.1 (3.9-7.8) L/h
Tmax (clinical [14]; human, in vivo, po): 3.0 (1.0-4.0) h
half-life (clinical [14]; human, plasma, po, 500 mg): 2.9 h
plasma ritonavir concentrations vs reported values (clinical [14]; ritonavir 500 mg BID alone): slightly higher than those reported in HIV-infected patients receiving ritonavir 600 mg doses twice daily
plasma ritonavir concentrations vs published values (clinical [14]; ritonavir 500 mg BID with tipranavir): lower than published values for ritonavir 300 mg doses administered twice daily to HIV-infected patients
decrease in mean steady-state ritonavir concentrations (clinical [14]; ritonavir 500 mg BID with tipranavir 1350 mg BID vs alone): ~5 -fold
effect on apparent elimination half-life [15]: decreased relative to ritonavir given alone
decrease of median ritonavir AUC [16, 17]: 12 -fold
decrease of median ritonavir Cmax [16, 17]: 10 -fold
decrease of median ritonavir Cmin [16, 17]: 54 -fold
ritonavir concentrations in the presence of tipranavir ([16]; presence of tipranavir): greatly decreased

CC(C)(C)NC(=O)[C@@H]1C[C@@H]2CCCC[C@@H]2CN1C[C@@H](O)[C@H](Cc1ccccc1)NC(=O)[C@H](CC(N)=O)NC(=O)c1ccc2ccccc2n1 [Saquinavir]
Potential for Clinically Significant Interaction [6]: High (and unfavorable)
decrease of AUC by rifampin ([7]; human, in vivo): ~ 80%

O=c1[nH]cnc2c1ncn2[C@H]1CC[C@@H](CO)O1 [ddI]
Potential for Clinically Significant Interaction [6]: Low
Principal Route(s) of Elimination [5]: Tubular secretion
